# Measured values from US6417187B2, “1,2,4-triazole based compounds that can be used as insecticides or acaricides and processes” (Dow AgroSciences LLC, priority 2000, dated 2002).
# Experiments:
# Format in all cases: in vivo
# [1] = test system: Green Leafhopper (Nephotettix cincticeps); experiment: Insecticidal test for Green Leafhopper (rice seedling roots in test solution)
# [2] = test system: Brown Planthopper (Nilaparvata lugens); experiment: Insecticidal test for Brown Planthopper (rice seedling roots in test solution)
# [3] = test system: cabbage looper (Trichoplusia ni); experiment: Insecticidal test for cabbage looper (cabbage leaf-disc dip); conditions: for pest or weed control at 400 ppm: Trichoplusia ni, 120 h, read-out: CL: activity at 400 ppm against cabbage looper (% Control rating)
# [4] = test system: cotton aphid (Aphis gossvpii); experiment: Insecticidal test for cotton aphid (squash cotyledon spray); conditions: for pest or weed control at 50 ppm: 72 h, read-out: CA: activity at 50 ppm against cotton aphid (% Control rating)
# [5] = test system: beet armyworm (Spodoptera exigua); experiment: Insecticidal test for beet armyworm (treated lepidopteran diet); conditions: for pest or weed control at 400 ppm: Spodoptera exigua, 120 h, read-out: BAW: activity at 400 ppm against beet armyworm (% Control rating)
# [6] = test system: Sweetpotato Whitefly (Bemisia tabacia); experiment: Insecticidal test for Sweetpotato Whitefly (cotton plant spray); conditions: for pest or weed control at 200 ppm: Bemisia, 312 h, read-out: WF: activity at 200 ppm against whitefly (% Control rating)
# [7] = test system: tobacco budworm (Heliothis virescens); experiment: Insecticidal test for tobacco budworm (cotton cotyledon leaf-disc dip); conditions: 400 ppm, cotton cotyledon leaf-dip, 2nd instar larvae, 5 days
# [8] = 10 ppm test solution, rice seedling roots, 3rd instar nymphs, mortality at 6 days
# [9] = 400 ppm, cabbage leaf-dip, 2nd instar larvae, 5 days
# [10] = 50 ppm spray on infested squash cotyledons, 3 days, population reduction versus untreated
# [11] = 400 ppm, treated diet, second-instar larvae, 5 days
# [12] = 200 ppm spray on cotton plants, 13 days, reduction of large nymphs
Compound,"GLH: activity at 10 ppm against green leafbopper (% Control rating) [1, 8]","BPH: activity at 10 ppm against brown planthopper (% Control rating) [2, 8]","BAW: activity at 400 ppm against beet armyworm (% Control rating) [5, 11]","WF: activity at 200 ppm against whitefly (% Control rating) [6, 12]","CL: activity at 400 ppm against cabbage looper (% Control rating) [3, 9]",TBW: activity at 400 ppm against tobacco budworm (% Control rating) [7],"CA: activity at 50 ppm against cotton aphid (% Control rating) [4, 10]",other results
"C#Cc1sc(-c2nc(-c3c(F)cccc3Cl)nn2C)c(Cl)c1Cl [Compound 2, 1-Methyl-3-(2-chloro-6-fluorophenyl)-5-(3,4-dichloro-5-ethynvl-thien-2-yl)[1,2,4]triazole]",F (less than 50),D (60-69),,,,,,"pest or weed control at 400 ppm [3, 9]: < 50%; pest or weed control at 50 ppm [4, 10]: 60 to 69%"
Cn1nc(-c2c(F)cccc2Cl)nc1-c1sc(C#Cc2ccccc2F)c(Cl)c1Cl [Compound 9],,F (less than 50),B (80-89),F (less than 50),A (90-100),A (90-100),,
Cn1nc(-c2c(F)cccc2Cl)nc1-c1sc(C#Cc2ccc(F)cc2)c(Cl)c1Cl [Compound 12],F (less than 50),F (less than 50),A (90-100),F (less than 50),A (90-100),,C (70-79),
CCCc1ccc(C#Cc2sc(-c3nc(-c4c(F)cccc4Cl)nn3C)c(Cl)c2Cl)cc1 [Compound 14],,F (less than 50),A (90-100),F (less than 50),A (90-100),A (90-100),A (90-100),
Cn1nc(-c2c(F)cccc2Cl)nc1-c1sc(C#Cc2ccc(-c3ccccc3)cc2)c(Cl)c1Cl [Compound 16],F (less than 50),F (less than 50),F (less than 50),F (less than 50),D (60-69),,F (less than 50),
"Cn1nc(-c2c(F)cccc2Cl)nc1-c1sc(C#Cc2ccc(F)cc2F)c(Cl)c1Cl [Compound 23, 3-(2-chloro-6-fluorophenyl)-5-(5-(2,4-difluorophenylalkynyl)-3,4-dichloro-2-thiophene)-1-methyl-1H-1,2,4-triazole]",F (less than 50),,,,,,,"pest or weed control at 400 ppm [5, 11]: 90 to 100%; pest or weed control at 200 ppm [6, 12]: < 50%; pest or weed control at 400 ppm [3, 9]: 90 to 100%; pest or weed control at 50 ppm [4, 10]: < 50%"
Cc1ccsc1C#Cc1sc(-c2nc(-c3c(F)cccc3Cl)nn2C)c(Cl)c1Cl [Compound 36],D (60-69),D (60-69),,F (less than 50),A (90-100),,E (50-59),
Cn1nc(-c2c(F)cccc2Cl)nc1-c1sc(C#Cc2ccsc2)c(Cl)c1Cl [Compound 46],,F (less than 50),D (60-69),F (less than 50),D (60-69),,E (50-59),
Cn1nc(-c2c(F)cccc2Cl)nc1-c1sc(C#Cc2ccc(F)c(C(F)(F)F)c2)c(Cl)c1Cl [Compound 47],,F (less than 50),A (90-100),,A (90-100),A (90-100),C (70-79),
COc1ccc(C#Cc2sc(-c3nc(-c4c(F)cccc4Cl)nn3C)c(Cl)c2Cl)cc1Cl [Compound 48],,F (less than 50),A (90-100),,A (90-100),,D (60-69),
CCOc1ccc(C#Cc2sc(-c3nc(-c4c(F)cccc4Cl)nn3C)c(Cl)c2Cl)cc1C(F)(F)F [Compound 49],,F (less than 50),A (90-100),F (less than 50),A (90-100),D (60-69),F (less than 50),
Cc1cc(F)ccc1C#Cc1sc(-c2nc(-c3c(F)cccc3Cl)nn2C)c(Cl)c1Cl [Compound 52],,,A (90-100),F (less than 50),A (90-100),A (90-100),D (60-69),
CCOc1ccc(C#Cc2sc(-c3nc(-c4c(F)cccc4Cl)nn3C)c(Cl)c2Cl)cc1F [Compound 60],,,A (90-100),E (50-59),A (90-100),,F (less than 50),
Cn1nc(-c2c(F)cccc2Cl)nc1-c1sc(C#Cc2cnc(N3CCOCC3)nc2)c(Cl)c1Cl [Compound 63],,,D (60-69),F (less than 50),A (90-100),,,
Cn1nc(-c2c(F)cccc2Cl)nc1-c1sc(C#Cc2cnc(N3CCCCC3)nc2)c(Cl)c1Cl [Compound 64],,,B (80-89),F (less than 50),A (90-100),,,
CCCc1ccc(C#Cc2sc(-c3nc(-c4ccccc4F)nn3C)c(Cl)c2Cl)cc1 [Compound 76],F (less than 50),F (less than 50),A (90-100),F (less than 50),,,,
Cc1nc(-c2sc(C#Cc3ccc(F)cc3)c(Cl)c2Cl)n(C)n1 [Compound 78],F (less than 50),F (less than 50),,,,,,"pest or weed control at 400 ppm [5, 11]: 90 to 100%; pest or weed control at 200 ppm [6, 12]: 60 to 69%; pest or weed control at 50 ppm [4, 10]: < 50%"
CCCc1ccc(C#Cc2sc(-c3nc(-c4c(F)cccc4Cl)nn3CC)c(Cl)c2Cl)cc1 [Compound 81],,,A (90-100),F (less than 50),D (60-69),F (less than 50),F (less than 50),
CCCCn1nc(-c2c(F)cccc2Cl)nc1-c1sc(C#Cc2ccc(CCC)cc2)c(Cl)c1Cl [Compound 82],,,D (60-69),F (less than 50),A (90-100),,F (less than 50),
COc1ccc(C#Cc2sc(-c3nc(-c4c(Cl)cncc4Cl)nn3C)c(Cl)c2Cl)cc1 [Compound 87],,,F (less than 50),,F (less than 50),F (less than 50),,
CCCc1ccc(C#Cc2ccc(-c3nc(-c4c(F)cccc4Cl)nn3C)c(Cl)c2Cl)cc1 [Compound 90],,,,,,,,BAW: activity at 400 ppm against beet armyworm (% Control rating) ([5]; in vivo): A (key: A: 90-100; B: 80-89; C: 70-79; D: 60-69; E: 50-59; F: less than 50; G: inactive); GLH: activity at 10 ppm against green leafbopper (% Control rating) ([1]; in vivo): F (key: A: 90-100; B: 80-89; C: 70-79; D: 60-69; E: 50-59; F: less than 50; G: inactive); BPH: activity at 10 ppm against brown planthopper (% Control rating) ([2]; in vivo): E (key: A: 90-100; B: 80-89; C: 70-79; D: 60-69; E: 50-59; F: less than 50; G: inactive); WF: activity at 200 ppm against whitefly (% Control rating) ([6]; in vivo): F (key: A: 90-100; B: 80-89; C: 70-79; D: 60-69; E: 50-59; F: less than 50; G: inactive); CL: activity at 400 ppm against cabbage looper (% Control rating) ([3]; in vivo): A (key: A: 90-100; B: 80-89; C: 70-79; D: 60-69; E: 50-59; F: less than 50; G: inactive); CA: activity at 50 ppm against cotton aphid (% Control rating) ([4]; in vivo): B (key: A: 90-100; B: 80-89; C: 70-79; D: 60-69; E: 50-59; F: less than 50; G: inactive)
"Cn1nc(-c2c(F)cccc2Cl)nc1-c1ccc(C#Cc2ccc(C(F)(F)F)cc2)c(Cl)c1Cl [Compound 94, 1-Methyl-3-(2-Chloro-6-fluorophenyl)-5-(2,3-dichloro-4-(2-(4-trifluoromethyl)phenyl)-ethynyl-phenyl)-1 H[1,2,4]triazole]",,,,,,,,"pest or weed control at 400 ppm [5, 11]: 90 to 100%; pest or weed control at 200 ppm [6, 12]: < 50%; pest or weed control at 400 ppm [3, 9]: 90 to 100%; pest or weed control at 50 ppm [4, 10]: 80 to 89%; pest or weed control at 400 ppm ([7]; Heliothis virescens, 120 h, read-out: TBW: activity at 400 ppm against tobacco budworm (% Control rating)): 60 to 69%"
